According to patent US20030077709A1 (priority 2000, published 2003):

Key:
[1] = system: rat JULF2 stably expressing CHO cell; test: Cell migration test of rat JULF2 stably expressing CHO cell toward LTB4; assay type: cell-based; settings: same method of Example 6
Method: (§1) A 8 μm pore polycarbonate frame filter (mfd. by Neuroprobe) was treated with 10 μg/ml fibronectin (Asahi Technoglass)/PBS at 4° C. overnight. […] After 4 hours of culturing at 37° C. in a CO2 incubator, the frame filter was fixed with methanol and stained with Diff-Quik Staining Kit (International Reagents Corporation). The upper surface of this filter (the side on which cells were set) was wiped and air-dried and then absorbance at 595 nm was measured using a plate reader (Molecular Devices). Also, in order to examine pertussis toxin (PTX) sensitivity of the JULF2 stably expressing CHO cells, JULF2 stably expressing CHO cells treated with 50 ng/ml PTX for 20 hours were subjected to a cell migration test (FIG. 2).

[2] = system: JULF2 stably expressing CHO cells; test: Cell migration test of JULF2 stably expressing CHO cells toward LTB4; assay type: cell-based, human
Method: as §1

[3] = system: control vector-introduced CHO cells; test: cAMP production test toward LTB4 in control vector-introduced CHO cells; assay type: cell-based; settings: 1 μM forskolin, 0 to 1 μM LTB4
Method: The CHO-dhfr(−) strain was inoculated at a density of 1×10^6 cells into a 10 cm Petri dish containing αMEM (supplemented with nucleic acids) medium/10% fetal bovine serum and cultured for 1 day and then subjected to gene transfer of 8 μg of pEF-BOS-dhfr-Jul22 and pEF-BOS-dhfr (control vector) using FuGENE6 (mfd. by Boehringer Mannheim). The gene-transferred cells were recovered 24 hours thereafter, suspended in αMEM (nucleic acid-free) medium/100 nM methotrexate (mfd. by Wako Pure Chemical Industries)/10% fetal bovine serum and then serially diluted and inoculated again into the 10 cm Petri dish. Colonies formed after 2 weeks were separately isolated and used as JULF2 stably expressing CHO cells.
Each of the JULF2 stably expressing CHO cells and control vector-introduced CHO cells was inoculated into a 24 well plate at a density of 1×10^5 cells. […] After 30 minutes at 37° C., the culture supernatant was discarded and the cells were lysed using a cAMP EIA System (BIOTRAK; mfd. by Amersham) cell lysis solution.
Measurement of the produced amount of cAMP in cells under each condition was carried out using the cAMP EIA System in accordance with the attached protocol. […] On the other hand, changes in the produced amount of cAMP by the addition of LTB4 were not found in the control vector-introduced CHO cells.

JULF2 [4] = molecular target: T1, JULF2 (Homo sapiens, UniProt Q9NPC1); test: Screening of compounds which inhibit cAMP inhibition action by LTB4 using JULF2 stably expressing CHO cell; assay type: cell-based
T1 construct: expressed in transfected cells
T1 sequence (Q9NPC1 1-358): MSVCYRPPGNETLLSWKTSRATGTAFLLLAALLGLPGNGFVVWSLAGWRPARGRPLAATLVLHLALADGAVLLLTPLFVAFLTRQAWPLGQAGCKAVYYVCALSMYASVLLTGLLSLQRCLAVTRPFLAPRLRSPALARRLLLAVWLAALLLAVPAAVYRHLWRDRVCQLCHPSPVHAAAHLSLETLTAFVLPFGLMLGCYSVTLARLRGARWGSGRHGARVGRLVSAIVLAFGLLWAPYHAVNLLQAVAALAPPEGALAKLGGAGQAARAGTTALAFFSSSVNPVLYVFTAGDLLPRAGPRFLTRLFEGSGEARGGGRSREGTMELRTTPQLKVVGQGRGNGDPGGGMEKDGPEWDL
Text: The compound A, compound B and compound C are commercially available reagents, and compound A is on the market as a code number 0199-0032 of ChemDiv, Inc, and compound B as a code number TPB-488 of InterBioScreen. […] In this connection, the property of the compound A to show anti-inflammatory effect is also described in Biochemical Pharmacology, 51, 737-742, 1996.

[5] = system: JULF2 stably expressing CHO cell; test: Cell migration inhibition by JULF2 antagonist for migration of JULF2 stably expressing CHO cell toward LTB4; assay type: cell-based, human; settings: compound 0.03 to 100 μM in upper layer, 100 nM LTB4 in lower layer
Method: as §1

JULF2 [6] = molecular target: T1, JULF2; test: Inhibition of binding of [3H]LTB4 to JULF2 expressing cell membrane fraction
Method: The DNA fragment obtained in Example 1 coding for JULF2 was digested with XbaI and then cloned into pCEP4 (mfd. by Invitrogen) to be used as an expression vector (pCEP4-JULF2) for expressing JULF2. HEK293-EBNA strain was inoculated into a 15 cm Petri dish at a density of 5×10^6 cells and cultured for 1 day, and then 20 μg of pCEP4-JULF2 was subjected to gene transfer using Lipofectamine-2000 (mfd. by Gibco BRL). The gene-transferred cells were recovered 24 hours thereafter, washed, suspended in 20 mM Tris-HCl (pH 7.4)/5 mM EDTA and then homogenized using Polytron. After ultracentrifugation, the sediment was suspended in 20 mM Tris-HCl (pH 7.4) and used as a membrane fraction.
A liquid scintillation was added to the glass filter and the radioactivity was measured using a liquid scintillation counter.

| Compound | LTB4 concentration at which the migration activity becomes maximum (bell type chemotaxis) [1] [nM] | LTB4 concentration at which the migration activity becomes maximum (bell type chemotaxis) ([2]; JULF2 stably expressing CHO cells, 4 hours at 37° C., LTB4 in lower layer) [nM] | changes in the produced amount of cAMP by the addition of LTB4 [3] | IC50 (JULF2 [4]) [µM] | inhibition of cell migration toward LTB4 [5] | IC50 (JULF2 [6]) [µM] | inhibition of migration toward LTB4 by PTX pretreatment ([2]; JULF2 stably expressing CHO cells treated with 50 ng/ml PTX for 20 hours) |
| --- | --- | --- | --- | --- | --- | --- | --- |
| CCCCC/C=C\C[C@@H](O)/C=C/C=C/C=C\[C@@H](O)CCCC(=O)O [LTB4, leukotriene B4] | 100 | 30 | not found | – | – | – | – |
| CCCCCCCCOc1ccc(C(=N)N)cc1.Cl [compound A, 4-octyloxybenzenecarboximidoamide hydrochloride] | – | – | – | 0.4 | inhibit cell migration toward LTB4 in a dose-dependent manner | 0.1 | – |
| CCCCCCOc1ccc(C(=N)NO)cc1 [compound B, 4-hexyloxy-N-hydroxybenzenecarboximidoamide] | – | – | – | 6.7 | inhibit cell migration toward LTB4 in a dose-dependent manner | 5.7 | – |
| pertussis toxin [PTX] | – | – | – | – | – | – | completely inhibited |
